Test results published in patent US20130245081A1, “Compositions and Methods for Treating Amyotrophic Lateral Sclerosis” (priority 2009, published 2013).
Values joined by “and” are separate entries in the source; they are usually repeats but may differ in a detail not shown here. Equal values may be shown once. Read-outs that look alike come from different tables or passages of the source. Marks after values point to notes of the source that are not given here.

Tested on: patients with ALS
[1] = 300 mg, through the end of the study
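Also: adverse event data gathered at every clinic visit and phone contact, after first study drug dose, in a blinded trial, counts of affected subjects.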

Structure (SMILES): CCCN[C@@H]1CCc2nc(N)sc2C1 [dexpramipexole, (6R)-2-amino-4,5,6,7-tetrahydro-6-(propylamino)benzothiazole]
- TEAE: Cough (300 mg, through Week 28): 5 (11%) N (%)
- TEAE: Dehydration (300 mg, through Week 28): 3 (7%) N (%)
- TEAE: Depression (300 mg, through Week 28): 5 (11%) N (%)
- TEAE: Dizziness (300 mg, through Week 28): 3 (7%) N (%)
- TEAE: Dysarthria (300 mg, through Week 28): 5 (11%) N (%)
- TEAE: Dysphagia (300 mg, through Week 28): 4 (9%) N (%)
- TEAE: Dyspnoea (300 mg, through Week 28): 6 (14%) N (%)
- TEAE: Fall (300 mg, through Week 28): 11 (25%) N (%)
- TEAE: Fatigue (300 mg, through Week 28): 2 (5%)^a N (%) and 2 (5%) N (%)
- TEAE: Gastrointestinal Disorders (300 mg, through Week 28): 25 (57%) N (%)
- TEAE: General Disorders and Administration Site Conditions (300 mg, through Week 28): 12 (27%) N (%)
- TEAE: Headache (300 mg, through Week 28): 6 (14%) N (%)
- TEAE: Hyperglycaemia (300 mg, through Week 28): 3 (7%) N (%)
- TEAE: Infections and Infestations (300 mg, through Week 28): 17 (39%) N (%)
- TEAE: Injury, Poisoning and Procedural Complication (300 mg, through Week 28): 12 (27%) N (%)
- TEAE: Metabolism and Nutrition Disorders (300 mg, through Week 28): 8 (18%) N (%)
- TEAE: Muscle contractions involuntary (300 mg, through Week 28): 2 (5%)^a N (%) and 2 (5%) N (%)
- TEAE: Muscle spasticity (300 mg, through Week 28): 1 (2%) N (%)
- TEAE: Musculoskeletal and Connective Tissue Disorders (300 mg, through Week 28): 19 (43%) N (%)
- TEAE: Musculoskeletal pain (300 mg, through Week 28): 3 (7%) N (%)
- TEAE: Nausea (300 mg, through Week 28): 3 (7%) N (%)
- TEAE: Neck pain (300 mg, through Week 28): 4 (9%) N (%)
- TEAE: Nervous System Disorders (300 mg, through Week 28): 18 (41%) N (%)
- TEAE: Oedema peripheral (300 mg, through Week 28): 2 N (%) and 1 (2%) N (%)
- TEAE: Pharyngolaryngeal pain (300 mg, through Week 28): 3 (7%) N (%)
- TEAE: Pneumonia (300 mg, through Week 28): 1 (2%) N (%)
- TEAE: Pruritus (300 mg, through Week 28): 0 N (%)
- TEAE: Psychiatric Disorders (300 mg, through Week 28): 14 (32%) N (%)
- TEAE: Rash (300 mg, through Week 28): 3 (7%) N (%)
- TEAE: Respiratory failure (300 mg, through Week 28): 1 (2%) N (%)
- TEAE: Respiratory, Thoracic and Mediastinal Disorders (300 mg, through Week 28): 18 (41%) N (%)
- TEAE: Salivary hypersecretion (300 mg, through Week 28): 5 (11%) N (%)
- TEAE: Sinusitis (300 mg, through Week 28): 5 (11%) N (%)
- TEAE: Skin and Subcutaneous Tissue Disorders (300 mg, through Week 28): 8 (18%) N (%)
- TEAE: Tachycardia (300 mg, through Week 28): 4 (9%) N (%)
- TEAE: Upper respiratory tract infection (300 mg, through Week 28): 3 (7%) N (%)
- TEAE: Urinary tract infection (300 mg, through Week 28): 4 (9%) N (%)
- TEAE: Vomiting (300 mg, through Week 28): 0 N (%)
- serious TEAE: Acute myocardial infarction (300 mg, through Week 28): 0 N (%)
- serious TEAE: Atrial fibrillation (300 mg, through Week 28): 1 (2%) N (%)
- serious TEAE: Blood and Lymphatic System Disorders (300 mg, through Week 28): 1 (2%) N (%)
- serious TEAE: Cardiac Disorders (300 mg, through Week 28): 1 (2%) N (%)
- serious TEAE: Cardiac failure congestive (300 mg, through Week 28): 0 N (%)
- serious TEAE: Cholecystitis acute (300 mg, through Week 28): 1 (2%) N (%)
- serious TEAE: Concussion (300 mg, through Week 28): 1 (2%) N (%)
- serious TEAE: Disease progression (300 mg, through Week 28): 0 N (%)
- serious TEAE: Dyspnoea (300 mg, through Week 28): 0 N (%)
- serious TEAE: Fall (300 mg, through Week 28): 1 (2%) N (%)
- serious TEAE: Gastrointestinal Disorders (300 mg, through Week 28): 0 N (%)
- serious TEAE: General Disorders and Administration Site Conditions (300 mg, through Week 28): 0 N (%)
- serious TEAE: Hepatobiliary Disorders (300 mg, through Week 28): 1 (2%) N (%)
- serious TEAE: Ileus (300 mg, through Week 28): 0 N (%)
- serious TEAE: Infections and Infestations (300 mg, through Week 28): 1 (2%) N (%)
- serious TEAE: Injury, Poisoning and Procedural Complications (300 mg, through Week 28): 1 (2%) N (%)
- serious TEAE: Neutropenia (300 mg, through Week 28): 1 (2%) N (%)
- serious TEAE: Pneumonia (300 mg, through Week 28): 1 (2%) N (%)
- serious TEAE: Pneumonia aspiration (300 mg, through Week 28): 1 (2%) N (%)
- serious TEAE: Pneumonia bacterial (300 mg, through Week 28): 0 N (%)
- serious TEAE: Pulmonary embolism (300 mg, through Week 28): 0 N (%)
- serious TEAE: Respiratory distress (300 mg, through Week 28): 0 N (%)
- serious TEAE: Respiratory failure (300 mg, through Week 28): 1 (2%) N (%)
- serious TEAE: Respiratory, Thoracic and Mediastinal Disorders (300 mg, through Week 28): 2 (5%) N (%)
- serious TEAE: Subdural haematoma (300 mg, through Week 28): 1 (2%) N (%)
- serious TEAE: Sudden death (300 mg, through Week 28): 0 N (%)
- serious TEAE: Viral infection (300 mg, through Week 28): 0 N (%)
- ≧1 TEAE with an outcome of death (300 mg, through Week 28): 1 N (%) and 1 (2%) N (%)
- ≧1 serious TEAE (including death) (300 mg, through Week 28): 5 N (%) and 5 (11%) N (%)
- ≧1 serious treatment-related TEAE (300 mg, through Week 28): 1 (2%) N (%)
- ≧1 severe TEAE (300 mg, through Week 28): 6 (14%) N (%) and 6 N (%)
- Number of TEAEs [1]: 366
- Number of serious TEAEs [1]: 17
- Number of serious treatment-related TEAEs [1]: 2
- Number of severe TEAEs [1]: 23
- Number of treatment-related TEAEs [1]: 61
- Subjects with a TEAE with action taken of study drug discontinued [1]: 3 N (%) and 3 (7%) N (%)
- subjects with TEAEs with an outcome of death (b230 count) [1]: 5 subjects
- ≧1 TEAE with an outcome of death [1]: 4 N (%) and 4 (9%) N (%)
- ≧1 serious TEAE (including death) [1]: 11 N (%) and 11 (25%) N (%)
- ≧1 serious treatment-related TEAE [1]: 2 (5%) N (%)
- ≧1 severe TEAE [1]: 13 N (%) and 13 (30%) N (%)
- ≧1 treatment-related TEAE [1]: 18 (41%) N (%)
- safety and tolerability (total daily doses of 50 mg and 300 mg, ALS subjects): safe and well tolerated
